Columns and labels:
[1] = Anti-glycation, Ribose-BSA method, pentosidine AGE
Protocol: (§1) AGEs can be fluorescent as well as non fluorescent in nature. Typically the vesperlysine type of AGE have an excitation at 370-nm and emission at 440 nm, while pentosidine like AGE have an excitation at 335 nm and emission at 385 nm. The principle is based on the fact that ribose sugar and bovine serum albumin are mixed in specific ratio and incubated for 24 hours. Vesperlysine like AGE formed by the reaction was e estimated by the increase in fluorescence detected, at Ex/Em at 390/460 nm and pentosidines were detected at Ex/Em at 320/405 nm
(§2) Ribose—BSA method: 10 μl of various concentrations of samples were added to 40 μl of BSA (bovine serum albumin, 25 mg/ml stock) and 50 μl of D-Ribose (150 mg/ml stock) was added per well of black 96-well microplate and incubated for 24 h at 37° C. BSA was taken as the control. The AGEs (advanced glycation end product) formed were detected by the fluorescence at Ex/Em at 390/460 nm for vesperlysine and Ex/Em at 320/405 nm for pentosidine AGE.

[2] = Anti-glycation, Ribose-BSA method, vesperlysine-like AGE
Protocol: as §1, §2

[3] = tested on: Muscle cells (C2C12 myotubes); assay: Glucose uptake (2-NBDG, flow cytometry) in differentiated C2C12 myotubes; assay type: cell-based; details: compared to thymoquinone; FIG. 2
Protocol: The skeletal muscle cell line C2C12 myoblasts (procured from ATCC) were maintained in DMEM supplemented with 10% Fetal Bovine Serum at 37° C. with 5% CO2. Twenty thousand cells per well were seeded in a 24 well plate. When the cells reached 80-90% confluence, differentiation was induced by replacing the growth medium with DMEM containing 1% horse serum. Experiments were performed in completely differentiated C2C12 myotubes after 4-5 days in differentiation medium. Cells were then treated with 0.5% BSA in low glucose media for 16 hours and washed with cold Krebs-Ringer phosphate buffer without glucose. Cells were then treated with different non cytotoxic concentrations of samples in low glucose DMEM media with or without insulin at a concentration of 0.1 μM for 30 minutes at 37° C. Cells were then washed with cold PBS and stained with 5 μM of a fluorescent D-glucose analog 2-[N-(7-nitrobenz-2-oxa-1,3-diazol-4-yl) amino]-2-deoxy-D-glucose (2-NBDG) for 15 minutes in dark followed by flow cytometric detection of fluorescence produced by the cells.

[4] = tested on: Adipocytes; assay: Glucose uptake in adipocytes; assay type: cell-based; details: compared to thymoquinone; FIG. 2
[5] = molecular target: T1, α-glucosidase (Saccharomyces cerevisiae, UniProt P53341); assay: α-glucosidase inhibition (paranitrophenyl-α-d-glucopyranoside substrate); assay type: biochemical; details: enzyme 0.15 U/ml, substrate 1.25 mM, absorbance 405 nm
T1 construct: purchased Sigma-Aldrich G5003
Protocol: For glucosidase inhibition, α-glucosidase (Code G5003; Sigma-Aldrich, St. Louis, Mo., USA) was dissolved in 67 mM potassium phosphate buffer, pH 6.8, containing 8 containing 0.2% Bovine Serum Albumin (Sigma-Aldrich) & 0.02% sodium azide (Sigma-Aldrich) which was used as enzyme source. Paranitrophenyl-α-d-glucopyranoside (Sigma-Aldrich) was used as substrate. Thymoquinone, thymohydroquinone and composition containing thymohydroquinone were weighed prepared at concentration of 63, 125, 250 and 500 μg/ml and were made up with equal volumes of distilled water. 50 μl of said composition was incubated for 5 min with 50 μl enzyme source (0.15 U/ml). After incubation, 50 μl of substrate (1.25 mM) was added and further incubated for 20 min at room temperature. Presubstrate and post-substrate addition, absorbance was measured at 405 nm on a microplate reader (BMG FLUOstar OPTIMA Microplate Reader). The increase in absorbance on substrate addition was obtained. Each test was performed three times and the mean absorption was used to calculate percentage α-glucosidase inhibition. Acarbose was used as positive control with various concentrations. The inhibitory activities of varying concentrations of said composition were expressed as 100 minus the absorbance difference (%) of the said composition relative to the absorbance change of the negative control (i.e., water used as the test solution). […]

[6] = tested on: TNF-α; assay: TNF-α secretion by LPS-stimulated THP-1 cells (ELISA); assay type: cell-based, human; details: for inhibition at 0.03 µg/mL / inhibition at 0.06 µg/mL / inhibition at 0.13 µg/mL: Homo sapiens, THP-1, LPS 0.1 μg/mL, 24 hour; for inhibition at 0.03 µg/mL: 0.03 μg/mL; for inhibition at 0.06 µg/mL: 0.06 μg/mL; for inhibition at 0.13 µg/mL: 0.13 μg/mL
Protocol: Cells: THP1-human monocytes purchased from American Type Culture Collection (ATCC, Manassas, Va.) and maintained as a monolayer culture in Rosewell park memorial institute Medium (RMPI Life technologies, CA, USA.) supplemented with 10% (v/v) heat-inactivated foetal bovine serum (FBS; GIBCO/Invitrogen, Carlsbad, Calif.), 100 units/mL penicillin and 100 μg/mL streptomycin (Life technologies) at 37° C. in a humidified 5% CO2 incubator.
Reagents and buffers: Lipopolysaccharide (LPS, Sigma chemicals, USA), Phosphate buffered saline, RPMI, FBS
ELISA kit: Human TNF ELISA kit, Krishgen Biosciences, USA
Anti inflammatory activity was examined using human monocyte/macrophage cell line THP-Monocytes respond to lipopolysaccharides (LPS) by secreting proinflammatory cytokines. Tumour necrosis factor (TNF-α) is one of the principle cytokine which triggers a cascade of inflammatory reactions. The concentration of TNF-α was measured using an Enzyme linked Immunosorbent assay (ELISA). Reduction in TNF-α concentration indicates an anti inflammatory activity of the compound.
1×10^5 THP-1 cells were stimulated with 100 ng with lipopolysacharide (LPS, 0.1 μg/mL) to induce TNF-α secretion. Cells were pre treated with different concentrations of test materials (Thymoquinone, thymohydroquinone and a composition comprising thymohydroquinone) before LPS treatment. The cell supernatants were collected 24 hour after treatment and secreted TNF-α as estimated by cytokine ELISA as described by the manufacturer. Unstimulated cells were used as negative control. The limit of detection was <1 pg/mL.

[7] = DPPH radical scavenging assay; details: concentration reducing DPPH absorbance by 50%
Protocol: DPPH is a stable free radical in a methanolic solution with an absorbance at 520 nm. If the free radicals are scavenged by an anti oxidant molecule, the resulting solution appears yellow. The hydrogen atoms or electrons donation ability of the extracellular metabolite was measured by the bleaching of purple coloured DPPH methanol solution.
Thymoquinone, Thymohydroquinone and the composition comprising thymohydroquinone were prepared in varying concentrations. For the DPPH radical scavenging assay, 20 μL of test material was mixed with 180 μL of DPPH in methanol in a 96 well plate following the method as described earlier (Clarke et al., 2013). The plate was kept in the dark for 15 min, after which the absorbance of the solution was measured at 540 nm using a microplate reader (TECAN Ltd, Männedorf, Switzerland). Blanks (DMSO, methanol) and standard (Trolox solution in DMSO) were recorded simultaneously. The extracts were screened with variable concentrations to establish the inhibition concentration (IC50, the concentration reducing DPPH absorbance by 50%).
The free radical scavenging activity was calculated as follows,
Where, • B=Absorbance of reference solution (OD of DPPH) • C=Absorbance of reference solution, blank (OD of Methanol only) • S=Absorbance of test solution • […]

T1 sequence (P53341 whole entry): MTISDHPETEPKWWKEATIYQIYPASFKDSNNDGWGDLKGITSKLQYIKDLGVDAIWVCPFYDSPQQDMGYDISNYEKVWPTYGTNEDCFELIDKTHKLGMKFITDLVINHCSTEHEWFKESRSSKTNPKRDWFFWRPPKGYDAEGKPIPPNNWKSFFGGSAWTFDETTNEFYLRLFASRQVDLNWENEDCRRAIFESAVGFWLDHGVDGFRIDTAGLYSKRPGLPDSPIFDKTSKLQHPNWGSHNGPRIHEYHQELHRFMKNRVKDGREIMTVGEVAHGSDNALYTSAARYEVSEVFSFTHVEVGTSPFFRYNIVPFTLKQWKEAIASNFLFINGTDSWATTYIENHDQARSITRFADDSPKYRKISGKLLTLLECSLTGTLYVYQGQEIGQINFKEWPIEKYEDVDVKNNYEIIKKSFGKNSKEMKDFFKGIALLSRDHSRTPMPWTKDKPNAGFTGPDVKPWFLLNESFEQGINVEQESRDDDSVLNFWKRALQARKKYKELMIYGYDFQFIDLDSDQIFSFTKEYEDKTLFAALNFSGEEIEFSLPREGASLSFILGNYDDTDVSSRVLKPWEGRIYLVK

| SMILES | IC50, Inhibition of pentosidine Ex/Em at 320/405 nM [1] [µg/mL] | % Inhibition of pentosidine Ex/Em at 320/405 nm ([1]; 15.63 μg/mL) [%] | % Inhibition of pentosidine Ex/Em at 320/405 nm ([1]; 31.25 μg/mL) [%] | % Inhibition of pentosidine Ex/Em at 320/405 nm ([1]; 62.5 μg/mL) [%] | % Inhibition of pentosidine Ex/Em at 320/405 nm ([1]; 125 μg/mL) [%] | % Inhibition of pentosidine Ex/Em at 320/405 nm ([1]; 250 μg/mL) [%] | IC50, inhibition of vesperlysine Ex/Em at 390/460 nM [2] [µg/mL] | % inhibition of vesperlysine Ex/Em at 390/460 nm ([2]; 15.63 μg/mL) [%] | % inhibition of vesperlysine Ex/Em at 390/460 nm ([2]; 31.25 μg/mL) [%] | % inhibition of vesperlysine Ex/Em at 390/460 nm ([2]; 62.5 μg/mL) [%] | % inhibition of vesperlysine Ex/Em at 390/460 nm ([2]; 125 μg/mL) [%] | % inhibition of vesperlysine Ex/Em at 390/460 nm ([2]; 250 μg/mL) [%] | glucose uptake in Muscle cells [3] | glucose uptake in Adipocytes [4] | IC50 [5] [mM] | inhibition at 0.03 µg/mL [6] [%] | inhibition at 0.06 µg/mL [6] [%] | inhibition at 0.13 µg/mL [6] [%] | cell viability ([6]; THP-1 cells in the TNF-α test) | IC50 of DPPH scavenging [7] [µg/mL] |
| --- | --- | --- | --- | --- | --- | --- | --- | --- | --- | --- | --- | --- | --- | --- | --- | --- | --- | --- | --- | --- |
| Cc1cc(O)c(C(C)C)cc1O [Thymohydroquinone, thymohydroquinone] | 65.89 | 5.39 | 28.73 | 49.55 | 68.33 | 89.31 | 108.30 | 23.03 | 34.06 | 43.83 | 52.28 | 60.42 | enhanced glucose uptake | enhanced glucose uptake | 0.433 | 2.5 | 4.5 | 11.9 | without affecting the cell viability | 1.78 |
| CC1=CC(=O)C(C(C)C)=CC1=O [Thymoquinone, thymoquinone, reference compound] | 142.70 | 0 | 23.59 | 0.06 | 44.57 | 61.80 | 157.80 | 0 | 38.55 | 40.81 | 44.54 | 56.69 |  |  | 2.48 | 22 | 31 | 35 |  |  |
